Laboratory results from patent US10080728B2, “Hemostatic agent” (priority 2015, dated 2018).

Key:
eyeball pain = assay: Eyeball pain in posttraumatic processes, VAS (Example 2.16); format: in vivo, human; settings: eyeball lesions, instilled into the conjunctival sac
Excerpt: Evaluation of efficiency of the claimed substance for eyeball pain reduction in posttraumatic processes. The claimed substance solution was instilled into the conjunctival sac of patients with various lesions of the eyeball, including after surgery. As a reference, diclofenac eye drops were used. For efficiency evaluation the change in the pain sensation intensity on the visual analog scale (VAS) from 0 to 10 points was used.

postoperative pain = assay: Postoperative pain syndrome after laparoscopic cholecystectomy, VAS (Example 2.8); format: in vivo, human
Protocol: Evaluation of efficiency of the claimed substance for pain reduction was studied in patients suffering the postoperative pain syndrome. After laparoscopic cholecystectomy the claimed substance was applied onto the affected areas of the patients in the form of a solution/spray in a concentration of 0.01% to 10%. As a comparison preparation for surface anesthesia oxybuprocaine was used. To evaluate efficiency the change in the pain sensation intensity on the visual analog scale (VAS) in 1 minute after application/administration of the preparation and after 2 days in case of everyday application was used.

[1] = system: corneal sensitivity of the rabbit's eye; assay: Topical (corneal) anesthetic activity in rabbit's eye (Example 2.1); format: in vivo, rabbits; settings: 0.5% aqueous solution into the conjunctival sac of the rabbit's eye
Protocol: A study to determine anesthetic activity was carried out in unanesthetized rabbits, which were placed in a special box with a hole to restrain the animal's head. The study was conducted to determine the threshold of sensitivity of the rabbit's eye to a tactile impact. For this purpose, a thin metal wire was used without injuring the cornea. The examined compound and the reference drug (oxybuprocaine) were administered into the conjunctival sac of the rabbit's eye in the form of a 0.5% aqueous solution with the total volume of up to 0.4 ml. Determination of topical anaesthesia was performed starting from the 1st minute of the study. The absence of the blinking reflex for 1 min (100 touches) was considered as an indicator of full anesthesia. Based on the collected data reflecting the changes in corneal sensitivity under the influence of the drugs, the beginning, the duration of complete (100%) anesthesia and the total duration of anesthesia were determined.
The relative activity of the tested compounds was calculated according to the Valet equation. The Rainier index is 852.4 for the claimed preparation and 63.5 for the reference preparation. The duration of anesthesia was 234 minutes for the claimed preparation and 24 min for oxibuprocaine.

[2] = system: bleeding from liver wounds; assay: Hemostatic activity together with aluminum sulfate gel or silver nitrate solution (Example 1.6); format: in vivo, rabbits
Protocol: The influence of the claimed substance on the hemostatic function was examined in rabbits of both sexes weighing 2000-4000 g. The experiments were carried out under general anesthesia. The animals underwent a laparotomy with a section made along the white line of the abdomen. The intestine was exteriorized into the wound and limited by wipes moistened with 0.9% sodium chloride solution (temperature […]), as well as the front surface of the liver. A superficial wound of the liver by the area of 1.5 cm^2 and the depth of 0.1 cm was inflicted by means of a razor. […] An animal model was used in the experiment, as described in Example No. 4. Hemostatic activity was evaluated by the change of the bleeding intensity.

[3] = system: itch at genital candidiasis; assay: Itch reduction at genital candidiasis, ISS (Example 2.3); format: in vivo; settings: rounded to the higher value
Protocol: Evaluation of the claimed substance's anesthetic activity to reduce itch at genital candidiasis was studied when applied onto mucosae in the form of a 0.01% to 10% solution or by administering vaginal suppositories containing the claimed substance. To evaluate the efficiency the change in the itch sensation intensity on the Itch Severity Score (ISS) in 1 minute after application/administration of the product and after 5 days in case of everyday administration was used.

pain with soft corn = assay: Anesthetic activity, pain with soft corn, VAS (second Example 1.8); format: in vivo; settings: soft corns
Protocol: Evaluation of the claimed substance's anesthetic activity was studied when dispersing a spray containing 0.01-10% of the preparation, or when applied at a concentration of 0.01% to 10% onto a bandaging material or a plaster for application onto the wound surface. An iron subsulfate solution was used as a reference. For efficiency evaluation the change in the pain sensation intensity on the visual analog scale (VAS) from 0 to 10 points in 1 minute after application of the product and after 2 days in everyday use was used.

[4] = system: capillary-parenchymal bleeding from liver wounds; assay: Hemostatic activity of solution or spray on superficial liver wound (Example 1.1); format: in vivo, rabbits
Protocol: The influence of the claimed substance on the hemostatic function was examined in rabbits of both sexes weighing 2000-4000 g. The experiments were carried out under general anesthesia. The animals underwent a laparotomy with a section made along the white line of the abdomen. The intestine was exteriorized into the wound and limited by wipes moistened with 0.9% sodium chloride solution (temperature […]), as well as the front surface of the liver. A superficial wound of the liver by the area of 1.5 cm^2 and the depth of 0.1 cm was inflicted by means of a razor.
Arrest of the capillary-parenchymal bleeding was carried out by uniform application of a 1% solution or a spray of the claimed substance on the entire area of the wound surface. At that, iron subsulfat was used for comparison of the bleeding arrest time. Hemostatic activity was evaluated by the change of the bleeding intensity.

[5] = system: bleeding and pain after medical interventions; assay: Bleeding and pain in ENT, upper respiratory and digestive systems interventions (Example 2.17); format: in vivo, human
Protocol: Evaluation of the claimed substance efficiency for reduction of bleeding and pain in ENT, upper respiratory and digestive systems pathologies, in the course of instrumentation studies of these systems. Patients with various medical interventions after treatment with haemostatic purpose and pain reduction were treated with the claimed preparation. An iron subsulfate solution was used as a reference. For efficiency evaluation the change in the pain sensation intensity on the visual analog scale (VAS) from 0 to 10 points was used.

[6] = system: chest pain and bloody sputum; assay: Inhalation in chronic obstructive pulmonary disease: chest pain VAS and blood in sputum (Example 2.13); format: in vivo, human; settings: for Pain sensation intensity on a visual analog scale: chronic obstructive pulmonary disease, inhalation by nebulizer
[7] = Nanostructure by electron-microscopic examination; format: physicochemical
Protocol: (§1) The nanostructure is determined by the methods of dynamic light scattering using a Malvern Instruments Nanosizer Nano-ZS particle size analyzer and a FEI Tecnai G212Cryo12 transmission electron microscope enabling tp cool the samples at the boiling point of liquid nitrogen.

[8] = Nanostructure by dynamic light scattering; format: physicochemical; settings: preparation concentration 0.05 mg/ml
Protocol: as §1

[9] = 1 minute after application of the preparation

## O=C(O)Cc1ccccc1Nc1c(Cl)cccc1Cl [Diclofenac solution, Diclofenac]
Eyeball pain; before treatment
  Pain sensation intensity on a visual analog scale: 6.9 +/− 0.8 points
Eyeball pain; in 1 minute
  Pain sensation intensity on a visual analog scale: 7.1 +/− 0.5 points
Eyeball pain; in 10 minute
  Pain sensation intensity on a visual analog scale: 7.2 +/− 0.6 points

## CCCCOc1cc(C(=O)OCCN(CC)CC)ccc1N [Oxybuprocaine, oxybuprocaine]
Postoperative pain; [9]
  Pain sensation intensity on a visual analog scale: 2.2 +/− 0.4
Postoperative pain; before treatment
  Pain sensation intensity on a visual analog scale: 7.6 +/− 0.8
Postoperative pain; in 2 days (daily administration)
  Pain sensation intensity on a visual analog scale: 0.5 +/− 0.1
[1]
  Rainier index (relative activity, Valet equation): 63.5
  duration of anesthesia: 24 min

## O=[N+]([O-])[O-].[Ag+] [Silver nitrate solution (1:200), Silver nitrate]
[2]; 120 seconds after application
  Relative intensity of bleeding: 1035.7 ± 119.0 mg/min
[2]; before application
  Relative intensity of bleeding: 1437.5 ± 141.6 mg/min

## Ferric Subsulfate [iron subsulphate]
[3]; [9]
  Itch intensity on the Itch Severity Score (ISS) scale: 4 points
[3]; in 5 days (for daily administration)
  Itch intensity on the Itch Severity Score (ISS) scale: 5 points
Pain with soft corn; before treatment
  Pain sensation intensity on a visual analog scale: 4.2 +/− 0.2 points
Pain with soft corn; in 1 minute
  Pain sensation intensity on a visual analog scale: 4.5 +/− 0.4 points
Pain with soft corn; in 2 days, everyday use
  Pain sensation intensity on a visual analog scale: 3.9 +/− 0.3 points
[4]; 180 seconds after application
  Relative intensity of bleeding from liver wounds: 652.6 ± 108.2 mg/min
[4]; before application
  Relative intensity of bleeding from liver wounds: 1326.4 ± 128.5 mg/min
[5]; before treatment
  Pain sensation intensity on a visual analog scale: 4.7 +/− 0.5 points
[5]; in 1 minute
  Pain sensation intensity on a visual analog scale: 4.5 +/− 0.4 points
[5]; in 10 minute
  Pain sensation intensity on a visual analog scale: 4.6 +/− 0.5 points
[6]; before treatment
  Pain sensation intensity on a visual analog scale: 4.2 +/− 0.7
[6]; in 1 minute
  Pain sensation intensity on a visual analog scale: 4.4 +/− 0.7
  Presence of bloody sputum: +++
[6]; in 5 days
  Pain sensation intensity on a visual analog scale: 4.2 +/− 0.7

## polyammonia methanediamine chloride [the claimed preparation]
[7]
  size of globules: 10-15 nm
[8]
  size of globules in solution: 10-15 nm
[1]
  Rainier index (relative activity, Valet equation): 852.4
  duration of anesthesia: 234 min
